Measurements as given in patent US9278069B2, “Nanoclusters compositions and methods” (UNIVERSITY OF KANSAS, priority 2005, dated 2016).
Blank lines part the entries; values can stand above or below the compound they belong to.

How the values were obtained:
[1] = Cascade impaction of diatrizoic acid dry powder and nebulized suspension; format: physicochemical; conditions: flow rate ~30 L/min
Method: FDA requires characterization of aerosols using cascade impaction, which determines aerosol particle size; indicative of the probable deposition site in the lung. The nanoparticle agglomerate formulation described above was studied using a Tisch Ambient Cascade Impactor. The study was carried out by applying ˜20 mg powder manually into the orifice of the instrument at an air flow rate of […]. Alternatively, the dry powders were suspended in water and applied into the cascade impactor through a nebulizer equipped with an LC Star atomizer. […] Cut-off particle aerodynamic diameters at 30 L/min for each stage of the impactor were: pre-separator (10.00 μm), stage 0 (9.00 μm), stage 1 (5.8 μm), stage 2 (4.7 μm), stage 3 (3.3 μm), stage 4 (2.1 μm), stage 5 (1.1 μm), stage 6 (0.7 μm), stage 7 (0.4 μm) and filter (0 μm). Diatrizoic acid nanoparticle agglomerates deposited on each stage of the impactor were determined by measuring the difference in weight of filters placed on the stages. The percent emitted fraction (% EF) and fine particle fractions of the total dose (FPFTD) were then calculated. In addition, the mass median aerodynamic diameter, MMAD, and geometric standard deviation, GSD, were obtained by a linear fit of the cumulative percent less-than the particle size range by weight plotted on a probability scale as a function of the logarithm of the effective cut-off diameter.

[2] = Cascade impaction of paclitaxel nanoparticle agglomerates (Tisch Ambient Cascade Impactor); format: physicochemical
Method: Aerodynamic characteristics of selected nanoparticle agglomerates were studied in vitro using a Tisch Ambient Cascade Impactor (Tisch Environmental, Inc., Ohio). The study was carried out by applying ˜20 mg powder manually into the orifice of the instrument at an air flow rate of ˜30 L/min. Cut-off particle aerodynamic diameters for each stage of the impactor were: pre-separator ([…]), stage 0 ([…]), stage 1 (5.8 mm), stage 2 (4.7 mm), stage 3 (3.3 mm), stage 4 (2.1 mm), stage 5 (1.1 mm), stage 6 (0.7 mm), stage 7 (0.4 mm) and filter (0 mm). Nanoparticle agglomerates deposited on each stage of the impactor were determined by measuring the difference in weight of filters placed on the stages. The mass median aerodynamic diameter, MMAD, and geometric standard deviation, GSD, were obtained by a linear fit of the cumulative percent less-than the particle size range by weight plotted on a probability scale as a function of the logarithm of the effective cut-off diameter.

[3] = almost all organic solvent; cited from earlier work
A549 cells = experiment: Cytotoxicity of budesonide formulations, CellTiter 96 MTS assay; format: cell-based; conditions: up to 5 mg/mL, end of 12 hours
Method: In this experiment, 8×10^4 A549 cells/well were seeded in 96-well microtiter plates. At the end of the incubation period (12 h), […] of MTS reagent solution was added to each well and incubated for 3 hours at 37° C. The absorbance was measured at 490 nm using a microtiter plate reader (SpectraMax, M25, Molecular Devices Corp., CA). The percentage of viable cells with all tested concentrations was calculated relative to untreated cells.

[4] = Dispersion stability of budesonide in model propellant HPFP; format: physicochemical; conditions: dispersed in HPFP
Method: A trial run for determining the feasibility of budesonide nanoclusters as Metered Dose Inhaler formulations was performed. Budesonide nanoclusters and pure budesonide (milled) were dispersed in model propellant HPFP (2H, 3H perfluoropentane) and their dispersion stability was analyzed. HPFP has similar physico-chemical properties to MDI propellants such as […]. Previous literature studies indicate that dispersion stability of therapeutic molecules is similar in both HPFP and HFA227ea.

Solubility = format: physicochemical
[5] = Dissolution of insulin particles in PBS (pH 7.4); format: physicochemical; conditions: PBS pH 7.4, 37 °C, FIG. 38
Method: Approximately 6 mg of each insulin particle sample was suspended in PBS (pH 7.4). The solution was placed in a 100,000 Dalton biotech grade cellulose ester dialysis tube (Spectrum Labs, Rancho Dominiguez, Calif.) and placed in PBS solution to a final volume of 45 mL. All samples were incubated at 37° C. and shaken at 50 rpm on a shaker table. 1 mL aliquots were taken at various time points up to 8 hours from the bulk solution and replaced with 1 mL of fresh PBS. The insulin concentration was measured using a Coomassie Plus colorimetric protein quantification assay (Thermo Fisher Scientific, Waltham, Mass.). A calibration curve was used to correlate the insulin concentration with the measured absorbance, with insulin concentrations ranging between 1 and 25 μg/mL used as the standard. Dissolved mass was calculated from the measured concentration, and was then normalized to the total loaded mass to determine the percent dissolved. All experiments were performed in triplicate. Analysis of variance (ANOVA) was used to determine statistically significant differences between groups (p<0.05). Comparisons among groups were done using a Fisher's F-test.

[6] = Aerodynamic diameter by time-of-flight measurement (Aerosizer LD); format: physicochemical; conditions: insulin powders
Method: (§1) The aerodynamic size distributions of the agglomerate powders were measured directly from lyophilized powder by time-of-flight measurement using an Aerosizer LD (Amherst Instruments) equipped with a 700 mm aperture operating at 6 psi.
as §1, with “The particle size of the dispersed nanoparticle agglomerates as well as the resuspended lyophilized powder was measured using a Coulter Multisizer 3. The” for “The”, “μm” for “mm”
The aerodynamic diameters of the lyophilized powders were determined using an Aerosizer LD (Amherst Process Instruments Inc.). Data were collected over ˜70 seconds under high shear force (˜3.4 kPa) using a 700 μm nozzle.
The particle size was determined from the lyophilized powder using particle time-of-flight analysis. The particle mass mean aerodynamic diameter indentified using this analytical method was 1.0±0.1 μm, which is an ideal particle size for accessing the lung periphery.
Aerodynamic size distribution of the lyophilized powder was obtained by analyzing the time of flight measurements from an Aerosizer LD (Amherst Instruments) equipped with a 700 μm and operating 4 psi. […]

% EF (percent emitted fraction) [1]: 70 ± 1%
% FPF (fine particle fraction) <3.3 [1]: 4 ± 2^ %
% FPF (fine particle fraction) <5.7 [1]: 21 ± 2%
GSD (geometric standard deviation) [1]: 2 ± 0.1
MMAD (mass median aerodynamic diameter obtained from cascade impactor) [1]: 9 ± 0.1
Compound: CC(=O)Nc1c(I)c(NC(C)=O)c(I)c(C(=O)O)c1I [Diatrizoic acid (powder), Diatrizoic acid]

% EF (percent emitted fraction) [1]: 75 ± 5%
% FPF (fine particle fraction) <3.3 [1]: 10 ± 7%
% FPF (fine particle fraction) <5.7 [1]: 33 ± 6%
GSD (geometric standard deviation) [1]: 2 ± 0.1
MMAD (mass median aerodynamic diameter obtained from cascade impactor) [1]: 7 ± 1
Compound: CC(=O)Nc1c(I)c(NC(C)=O)c(I)c(C(=O)O)c1I [Diatrizoic acid (suspen.), Diatrizoic acid]

GSD (geometric standard deviation) ([2]; cascade impactor, ~30 L/min): 2.2 ± 0.03
MMAD (mass median aerodynamic diameter) ([2]; cascade impactor, ~30 L/min): 0.08 ± 0.02
% RF (percent respirable fraction) <3.3 ([2]; flow rate ~30 L/min): 0%
% RF (percent respirable fraction) <5.7 ([2]; flow rate ~30 L/min): 0.39 ± 0.3%
% EF (percent emitted fraction) ([2]; lyophilized NA, flow rate ~30 L/min): 68.3 ± 6.1%
Compound: CC(=O)O[C@H]1C(=O)[C@@]2(C)[C@H]([C@H](OC(=O)c3ccccc3)[C@]3(O)C[C@H](OC(=O)[C@H](O)[C@@H](NC(=O)c4ccccc4)c4ccccc4)C(C)=C1C3(C)C)[C@]1(OC(C)=O)CO[C@@H]1C[C@@H]2O [Pure paclitaxel powder, Paclitaxel]

Compound: CO[C@H]1/C=C/O[C@@]2(C)Oc3c(C)c(O)c4c(O)c(c(/C=N/N5CCN(C)CC5)c(O)c4c3C2=O)NC(=O)/C(C)=C\C=C\[C@H](C)[C@H](O)[C@@H](C)[C@@H](O)[C@@H](C)[C@H](OC(C)=O)[C@@H]1C [Rifampicin]
solubility in organic solvent [3]: freely soluble

Compound: CCCC1O[C@@H]2C[C@H]3[C@@H]4CCC5=CC(=O)C=C[C@]5(C)[C@H]4[C@@H](O)C[C@]3(C)[C@]2(C(=O)CO)O1 (some centres unmarked) [Stock budesonide, Budesonide]
cytotoxicity (A549 cells): did not show any significant cytotoxicity

dispersion stability (creaming) [4]: clearly visible layer was seen at 1 hr
dispersion stability (creaming) ([4]; listed as jet milled budesonide): complete creaming
Compound: CCCC1O[C@@H]2C[C@H]3[C@@H]4CCC5=CC(=O)C=C[C@]5(C)[C@H]4[C@@H](O)C[C@]3(C)[C@]2(C(=O)CO)O1 (some centres unmarked) [milled budesonide, Budesonide]

solubility in acetone and ethanol (Solubility): poorly soluble
solubility in water (Solubility): freely water soluble
Compound: [H]/N=C(/N)N[C@H]1[C@H](O)[C@@H](O)[C@H](O[C@@H]2O[C@@H](C)[C@](O)(C=O)[C@H]2O[C@@H]2O[C@@H](CO)[C@H](O)[C@@H](O)[C@@H]2NC)[C@@H](N/C(N)=N\[H])[C@@H]1O [streptomycin, Streptomycin]

Compound: Unprocessed: Lyophilized insulin powder from bovine pancreas (0.5% zinc content)
insulin dissolution behaviour [5]: follows Higuchi dissolution kinetics
daero [6]: 4.117 ± 1.852 μm
